Paper PMC4859512, “Polyamino-Isoprenic Derivatives Block Intrinsic Resistance of P. aeruginosa to Doxycycline and Chloramphenicol In Vitro” (PLoS ONE, 2016)
Several values for one entry are separate records, joined by “and”; a condition that tells them apart may be missing. Identical values can stand only once.

Key:
P. aeruginosa PA01 (wt) = test: Antibiotic susceptibility testing (broth micro-dilution MIC), strain PA01; assay type: cell-based, Pseudomonas aeruginosa; conditions: Pseudomonas aeruginosa, read-out: Minimal Inhibitory Concentration
Method: (§1) Experiments were performed on the BAC-SCREEN platform of the UMR-MD1, with a Freedom EVO 150 liquid handling system (Tecan, Lyon, France).
(§2) The same experiment was performed using chloramphenicol (4 mg/L) in combination with 3 (10 μM final concentration). […] These experiments were performed to study the effect of our compounds on the natural resistance of P. aeruginosa. […] Experiments were performed with the ß-lactams ceftazidime and ticarcillin and ciprofloxacin and amikacin.

[1] = test system: P. aeruginosa PT629 (Mex AB overproducer); test: Antibiotic susceptibility testing (broth micro-dilution MIC), strain PT629; assay type: cell-based, Pseudomonas aeruginosa; conditions: Pseudomonas aeruginosa, read-out: Minimal Inhibitory Concentration
Method: as §1
(§3) We concluded that compound 3 was the best compound and suitable for a more detailed study. The same experiment was performed using chloramphenicol (4 mg/L) in combination with 3 (10 μM final concentration). Amongst the 20 clinical isolates, the growth of 15 (75%) was impaired, while 5 (25%) were resistant (data not shown). These experiments were performed to study the effect of our compounds on the natural resistance of P. aeruginosa. In addition, we were wondering if compound 3 could also increase susceptibility to other antibiotic families including ß-Lactams, fluoroquinolones and aminoglycosides, that are representative of the main classes of anti-pseudomonal agents. Experiments were performed with the ß-lactams ceftazidime and ticarcillin and ciprofloxacin and amikacin. […] . […] To better characterize compound 3, we first searched for the minimum concentration of compound that allowed killing of bacteria by doxycycline, and PAßN was used as the reference molecule.

[2] = test system: P. aeruginosa PA01 ERY^R (Mex CD overproducer); test: microbe, parasite or virus in culture; assay type: cell-based, Pseudomonas aeruginosa; conditions: Pseudomonas aeruginosa, read-out: Minimal Inhibitory Concentration
Method: as §1, §2

[3] = test system: P. aeruginosa PA0-7H (Mex EF overproducer); test: Antibiotic susceptibility testing (broth micro-dilution MIC), strain PA0-7H; assay type: cell-based, Pseudomonas aeruginosa; conditions: Pseudomonas aeruginosa, read-out: Minimal Inhibitory Concentration
Method: as §1, §3

[4] = test system: P. aeruginosa CMZ091 (Mex XY overproducer); test: Antibiotic susceptibility testing (broth micro-dilution MIC), strain CMZ091; assay type: cell-based, Pseudomonas aeruginosa; conditions: Pseudomonas aeruginosa, read-out: Minimal Inhibitory Concentration
Method: as §1, §3

[5] = test system: P. aeruginosa FB1 (Mex B deleted); test: Antibiotic susceptibility testing (broth micro-dilution MIC), strain FB1; assay type: cell-based; conditions: Pseudomonas aeruginosa, read-out: Minimal Inhibitory Concentration
Method: as §1

[6] = test system: twenty clinical isolates of P. aeruginosa; test: Combined antibiotic / polyamino-isoprenic derivative on MH agar plates, clinical isolates; assay type: cell-based, Pseudomonas aeruginosa; conditions: doxycycline 2 mg/L + compound 10 μM; 20 clinical isolates
Method: MH agar plates were prepared, containing 2 mg/L doxycycline and 2 mg/L doxycycline in combination with compounds at a concentration of 10 μM. Bacteria, 5 μL of a suspension of each clinical isolate adjusted to 5 x 10^5 colony-forming units per ml were spotted on each plate and growth was monitored after a 18 h period of incubation at 37°C.
PA01 is a well-studied reference strain of P. aeruginosa, however to extend our study we considered strains recently isolated from hospitalized patients. Thus, we decided to test this combination of doxycycline (2mg/L) with polyamino-isoprenic compounds (10 μM) on twenty clinical isolates recently isolated from the HIA-Laveran (see M&M section and S1 Table).

CHO-K1 cells = test: cells; assay type: cell-based, Chinese Hamster; conditions: for IC50: Cricetulus griseus, CHO-K1, WST1, 24 h, mean +/- SD, 2 independent experiments
Method: (§4) CHO-K1 cells (ATCC-LGC Standards Sarl (Molsheim, France) and human fibroblasts (Clinisciences, Paris, France) were maintained in McCoy’s 5A and DMEM media, respectively, supplemented with 10% bovine calf serum, 2 mM glutamine, and 100 U/mL/10 μg/mL penicillin/streptomycin. They were incubated at 37°C in a humidified atmosphere containing 5% CO2. The cell lines were seeded in 96-well plates and incubated overnight. The cytotoxic effects of compounds were assessed by the colorimetric WST-1 cell proliferation assay as previously described. Briefly, a range of compound concentrations from 30 μM to 1200 μM was added to triplicate cultures, and cells were incubated at 37°C for 24 h. At the end of the incubation period, cultures were washed three times with phosphate buffer saline (PBS) and incubated in fresh culture medium containing 10% WST-1 for an additional 30 min. Cell viability was evaluated by measuring the WST-1 absorbance at 450 nm in a microplate spectrophotometer MRX1 II (Dynex technologies, Chantilly, VA, USA). The Inhibitory Concentration 50% (IC50) was chosen to evaluate the cytotoxicity of compounds. IC50 was defined as the concentration of a compound that induced a 50% decrease in viable cells. Doxorubicin was used as a positive control.

human fibroblasts = test: WST-1 cytotoxicity test, fibroblasts; assay type: cell-based
Method: as §4

[7] = test system: P. aeruginosa PA01 reference strain; test: High-content screening in the presence of doxycycline; conditions: compound 10 μM, sub-inhibitory doxycycline
Method: The screening was carried out in 96-well microtiter plates using MHBII, in a final volume of 200 μL. […] The bacterial inoculum of 5×10^5 CFU/mL was prepared from an overnight culture. In addition to the polyamino-isoprenic compounds, each plate contained PAßN, CCCP, CTAB, polymyxin-B and benzalkonium chloride as control molecules. Plates were incubated at 37°C under aerobic conditions for 18 hours. Plates were read at 600 nm on an Infinite M200 Pro plate reader (Tecan).
A series of 60 compounds, which were described [18], were tested at a concentration of 10 μM in combination with a sub-inhibitory concentration of doxycycline against the reference strain of P. aeruginosa PA01. In parallel, we evaluated the intrinsic antimicrobial activity of these compounds alone to allow the selection of only doxycycline adjuvants.

Enterobacteriaceae = test: Same type of combination assay against Enterobacteriaceae (data not shown); assay type: cell-based
[8] = test system: efflux of 1,2'-dinaphthylamine in strain PA01; test: Real-time efflux assay (1,2'-dinaphthylamine, glucose-triggered); assay type: cell-based, Pseudomonas aeruginosa
Method: The experiments were performed as previously described with slight modifications. For each strain, 20 mL of MHII was inoculated with a single colony from a fresh plate and grown at 37°C to the stationary phase. […] They were then loaded over night with the dye 1,2’-dinaphthylamine (TCI-Europe SA, Zwijndrecht, Belgium) at a final concentration of 32 μM, in the presence of 5 μM CCCP. […] In a 96-well Greiner black microplate (Greiner, Courtaboeuf, France), a gradient of inhibitor (when used) was prepared in PPB, and bacteria were added (100 μL per well). The fluorescence of the cell suspension, was monitored each 22 sec during 1200 sec on an Infinite M200 microplate reader (Tecan; excitation wavelength 370 nm and emission wavelength 420 nm). In order to trigger the transport, glucose (50 mM final concentration) is added at 200 sec. The maximum efficacy of the efflux is the difference between the value obtained without and with glucose addition after 1200 sec. For each compound, the efficiency of efflux inhibition is calculated as the difference between the maximum efficacy of transport and the residual transport obtained at various concentrations of the compound.

[9] = test system: outer membrane of P. aeruginosa PA01; test: Outer membrane permeation assay (nitrocefin hydrolysis); conditions: compound at 125μM, relative to 250 μM polymyxin-B
Method: An overnight culture of PA01 was diluted 100-fold into 10 ml MHII broth containing 0.01 μg/ml of imipenem to induce a higher level of β-lactamases. […] Absorbance at 490 nm was monitored by spectrophotometry using an Infinite M200 microplate reader (Tecan) over 60 min. Experiments were performed in triplicate.

Row | Molecule | MIC (P. aeruginosa PA01 (wt)) | MIC [1] | MIC [2] | MIC [3] | MIC [4] | MIC [5] | isolates with doxycycline susceptibility restored [6] | cytotoxicity value compared with the positive control doxorubicin (CHO-K1 cells; Chinese hamster, 24 h) | IC50 (CHO-K1 cells) | IC50 (human fibroblasts; Homo sapiens, Fibroblast, WST1, 24 h, mean +/- SD, 2 independent experiments) | cytotoxicity value compared with the positive control doxorubicin (human fibroblasts; human fibroblasts) | synergy with doxycycline in screening [7] | rank of potency against Enterobacteriaceae (Enterobacteriaceae) | efflux inhibition ([8]; compound at 31.25μM) | efflux inhibition ([8]; compound at 125μM) | outer membrane permeation activity [9]
1 | CC(C)=CCCC(C)=CCNCCCNCCCCNCCCN [Compound 1] | > 85 µg/mL and > 250 µM | > 85 µg/mL and > 250 µM | > 85 µg/mL and > 250 µM | 85 µg/mL and 250 µM | 85 µg/mL and 250 µM | 85 µg/mL and 250 µM | 27% | 20 times | 808 ± 68.1 µM | 138 ± 18.6 µM | 10 times | did not show any significant synergy |  |  |  | 
2 | CC(C)=CCCC(C)=CCNCCCN(CCCN)CCCN [Compound 2] | > 81 µg/mL and > 250 µM | > 81 µg/mL and > 250 µM | > 81 µg/mL and > 250 µM | > 81 µg/mL and > 250 µM | > 81 µg/mL and > 250 µM | > 81 µg/mL and > 250 µM | 6% |  | 236 ± 28.9 µM |  |  |  | the most potent |  |  | 
3 | polymyxin-B nonapeptide [PMBN, reference compound] |  |  |  |  |  |  |  |  |  |  |  |  |  | quite inefficient | 30% | 10%
